Experimental data as given in BindingDB's records for doi:10.1016/j.bmcl.2004.03.067 (Pfizer, 2004).

Assays:
[1] = Inhibition of Phosphodiesterase 5
[2] = Inhibition of Phosphodiesterase 5; remark: listed apart in the source

COc1cc2c3c(n1)C(c1ccccc1)=N[C@@H](NC(=O)c1cccnc1)C(=O)N3CC2
IC50 [1]: > 100 µM

COc1cc2c3c(n1)C(c1ccccc1)=NCC(=O)N3CC2 [4-Methoxy-6-phenyl-1,2-dihydro-8H-5,7,9a-triaza-benzo[cd]azulen-9-one]
IC50 [1]: 91 µM

COc1cc2c3c(n1)C(c1ccccc1)=NC(NC(=O)c1cccnc1)C(=O)N3CC2 (centres undefined) [N-(4-methoxy-9-oxo-6-phenyl-1,2,8,9-tetrahydro-5,7,9a-triazabenzo[cd]azulen-8-yl)nicotinamide]
IC50 [1]: > 100 µM | IC50 [2]: 95 µM
